In brackets after ≈: the same amount, converted by molar mass. Entries after “also recorded” stand apart in the source; their conditions may differ. Where a name gives a salt, the structure may show the parent alone.
Legend:
[1] = cited from earlier work
brain tumor capillaries = conditions: intracarotid infusion, cited from earlier work
[2] = Arterial blood pressure monitored during intracarotid infusion; assay type: in vivo; conditions: rats; higher doses (100 and 110 μg/kg/min)
Protocol: Dose-dependence studies. NS-1619 was dissolved in 25% ethanol and diluted with PBS to obtain various concentrations for infusion. NS-1619 was administered by intracarotid infusion (dose rates: 0, 13, 26.5, 53, 80, 100 and 110 μg kg^−1 min^−1; all at 53.3. μL/min) to RG2 glioma-bearing rats to determine a dose that produces increased permeability (Ki) of (^14C]-AIB, which was administered intravenously. Ki determined as described above. Physiological parameters were monitored during the experiments.

[3] = test system: blood-tumor barrier of RG2 glioma tissue; assay: Unidirectional transfer constant Ki for [14C]AIB across the blood-tumor barrier, quantitative autoradiography after intracarotid infusion; assay type: in vivo, Wistar rats; conditions: for unidirectional transport constant Ki for [14C]α-aminoisobutyric acid (AIB) across the blood-tumor barrier: RG2 glioma-bearing Wistar rats, intracarotid 7.5 μg kg^−1 min^−1 for 15 minutes
Excerpt: Malignant Cell Line and Tumor Implantation. A rat glioma cell line, RG2, was used for implantation of experimental brain tumors in Wistar rats. The techniques for RG2 cell propagation and maintenance in tissue culture have been described (Sugita, M. and Black, K. L., Cyclic GMP-specific phosphodiesterase inhibition and intracarotid bradykinin infusion enhances permeability into brain tumors, Cancer Res. 58(5):914-20 [1998]; Inamura et al. [1994]; Nakano, S. et al., Increased brain tumor microvessel permeability after intracarotid bradykinin infusion is mediated by nitric oxide, Cancer Res. 56(17):4027-31 [1996]). Briefly, RG2 cells derived from a rat glioma are kept frozen until use, then are thawed and maintained in a monolayer culture in F12 medium with 10% calf serum.
The Wistar rats (approximately 140-160 g body weight) were anesthetized with intra-peritoneal ketarnine (50 mg/kg), and glial cells (1×10^5) were implanted into the right hemisphere, but not the contralateral hemisphere, by intracerebral injection suspended in 5 μL F12 medium,(1-2% methylcellulose) by.a Hamilton syringe. The implantation coordinates were 3-mm lateral to the bregrna and 4.5 mm deep to the dural surface.
Intracarotid Infusion of Potassium Channel Activators. Seven days after implantation of RG2 cells, the rats were anesthetized as described above and prepared for permeability studies. Animals were infused with either NS-1619 (a selective large conductance Ca^2+- activated K^+ channel activator; […]; 5% (v/v) ethanol. Ethanol (25% [v/v]) was used to dissolve. the potassium channel agonists before.dilution in PBS. For blood volume studies, 5 and 14 minutes after the start of the intracarotid infusion of potassium channel agonist compounds, [^14C] Dextran (100 μCi/kg; Dupont-New England Nuclear Co., Boston, Mass.) was injected as an intravenous bolus and maintained for 1 minute and 10 minutes to obtain two different time points. For regional permeability studies, 5 minutes after the start of the intracarotid infusion of vasoactive compounds, 100 μCi/kg of [^14C]α-aminoisobutyric acid (Dupont-New England Nuclear Colo., Boston, Mass.) was injected as an intravenous bolus. A peristaltic withdrawal pump was used to withdraw femoral arterial blood at a constant rate of 0.083 mL/min immediately after the injection of the tracer to determine serum radioactivity. Fifteen minutes after the intracarotid infusion, rat decapitated and the brain rapidly removed and frozen for quantitative autoradiography.
Unidirectional Transport Constant (Ki). The unidirectional transfer constant Ki for [^14C]α-aminoisobutyric acid was measured in normal tissue and tumor tissue as an indicator of permeability across the blood-tumor and blood-brain barriers. Quantitative autbradiography was. used to obtain Ki values (μL g^−1min^−1). The initial rate for blood-to-brain transfer was calculated using a previously described equation. (Ohno, K, et al., Lower limits of cerebrovascular permeability to nonelectrolytes in the conscious rat, Am. J. Physiol. 235(3):H299-307, [1978]; Inamura, T., et al., Bradykinin selectively opens blood-tumor barrier in experimental brain rumors, J. Cereb. Flow Metab. 14(5):862-70 [1994]). Quantitative data were analyzed using, two group t-test and two-group Fisher's-exact test of equal proportions or equal means (equal numbers) at 90% power requires a minimum of 6 animals in each group to achieve statistical significance. Multiple treatment groups were compared with control group by ANOVA and P values determined by post-hoc Bonferroni test.
Dose-dependence studies. NS-1619 was dissolved in 25% ethanol and diluted with PBS to obtain various concentrations for infusion. […]

In the case of `CC(N/C(=N\C#N)Nc1ccncc1)C(C)(C)C` (racemic) [pinacidil, (±)-N-cyano-N′-4-pyridinyl-N″-(1,2,2-trimethylpropyl)-guanidine], the solubility in ethanol ([1]; ethanol) is listed as 14 mg/mL (≈ 57.1 mM) and the solubility in water [1] is listed as “insoluble in water; also recorded: not easily dissolved in water”.
In the case of `CCCCC/C=C\C\C=C/C=C/C=C/[C@@H](SC[C@H](NC(=O)CC[C@H](N)C(=O)O)C(=O)NCC(=O)O)[C@@H](O)CCCC(=O)O` [LTC4, leukotriene C4], the “permeability in normal brain capillaries” value (brain tumor capillaries) is listed as “without affecting the permeability” and the “permeability in brain tumor capillaries” value (brain tumor capillaries; effect limited to small molecules) is listed as “selectively increases the permeability”.
With `O=c1[nH]c2cc(C(F)(F)F)ccc2n1-c1cc(C(F)(F)F)ccc1O` [NS-1619, 1,3-dihydro-1-[2-hydroxy-5-(trifluoromethyl)phenyl]-5-(trifluoromethyl)-2H-benzimidazol-2-one] the arterial blood pressure [2] was “a significant drop in the arterial blood pressure”, the “Ki for [14C]AIB in RG2 tumor, NS-1619 26.5 μg kg^−1 min^−1 vs PBS with or without 5% ethanol” value ([3]; 15 minutes, n=8, P<0.001) was “Increase of Ki” and the “unidirectional transport constant Ki for [14C]α-aminoisobutyric acid (AIB) across the blood-tumor barrier” value [3] was “significantly increased”. The “dose-response of Ki for [14C]AIB in RG2 glioma capillaries” value ([3]; intracarotid dose rates 0, 13, 26.5, 53, 80, 100 and 110 μg kg^−1 min^−1) was “increasing the dose of NS-1619 results in an increase” and the solubility in water [1] was “not easily dissolved in water”.
For `CC1=NS(=O)(=O)c2cc(Cl)ccc2N1` [diazoxide], the solubility in water [1] is given as “not easily dissolved in water”.
For `Nc1cc(N2CCCCC2)nc(N)[n+]1OS(=O)(=O)[O-]` [minoxidil sulfate], the “unidirectional transport constant Ki for [14C]α-aminoisobutyric acid (AIB) across the blood-tumor barrier” value [3] is listed as “significantly increased” and the solubility in water [1] is listed as “not easily dissolved in water”.
With “IBTX: specific KCa channel inhibitor, iberiotoxin (QFTDVDCSVSKECWSVCKDLFGVDRGKCMGKKCRCYQ; Iberiotoxin; UniProt P24663 1-37, looked up)” the “brain-tumor barrier permeability of abnormal capillaries, IBTX alone” value ([3]; IBTX 2.3 μg kg^−1 min^−1, 15 minutes, n=3) was “did not affect” and the “effect of IBTX co-infusion on NS-1619-induced increase of permeability (Ki)” value ([3]; IBTX 2.3 μg kg^−1 min^−1 with NS-1619 26.5 μg kg^−1 min^−1, n=3, P<0.001 vs NS-1619-treated group) was “decreased NS-1619-induced increase of permeability”.
